These results are taken from ChEMBL document CHEMBL3758155, “Development of certain new 2-substituted-quinazolin-4-yl-aminobenzenesulfonamide as potential antitumor agents” (Eur J Med Chem, 2016).

Calls of active or inactive are those of the source. The calls are words filed in the database; no cut-off is given here.

Experiment [1] deals with HT-29. In words: Inhibition of carbonic anhydrase 1 expression in human HT-29 cells at 2.5 to 10 uM after 18 hrs by Western blot analysis. The class given is functional, cell-based.
In experiment [2] the test system is HT-29. In words: Inhibition of carbonic anhydrase 2 expression in human HT-29 cells at 2.5 to 10 uM after 18 hrs by Western blot analysis. The class given is functional, cell-based. On the technique in general: Immunoblotting shows a protein as a band on a membrane.
In experiment [3] the test system is HT-29. Put plainly: Antiproliferative activity against human HT-29 cells assessed as inhibition of cell viability after 24 hrs by trypan blue assay. The class given is functional, cell-based.
The test system of experiment [4] is HT-29. In words: Inhibition of carbonic anhydrase 12 expression in human HT-29 cells after 18 hrs by Western blot analysis. The class given is functional, cell-based.
In experiment [5] the test system is HT-29. Put plainly: Inhibition of carbonic anhydrase 9 expression in human HT-29 cells after 18 hrs by Western blot analysis. The class given is functional, cell-based.
Another experiment deals with SW-620. In words: Antiproliferative activity against human SW620 cells assessed as inhibition of cell viability at 5 to 10 uM after 24 hrs by trypan blue assay. The class given is functional, cell-based.
The subject of experiment [6] is HT-29. In words: Antiproliferative activity against human HT-29 cells assessed as cell viability at 10 uM after 24 hrs by trypan blue assay. The class given is functional. Conditions: HT-29, 24 h, read-out: Activity.
Experiment [7] concerns HT-29. In words: Antiproliferative activity against human HT-29 cells assessed as inhibition of cell viability at 10 uM by trypan blue assay. The class given is functional, cell-based. Conditions: TDE = time-dependent effect.

By IC50 is commonly meant the midpoint of a concentration-inhibition curve. Consider `NS(=O)(=O)c1ccc(Nc2nc(-c3ccc(Cl)cc3)nc3ccccc23)cc1`, for which the inhibition result in the experiment on HT-29 [1] and with HT-29 [2] was “inactive” each time. Moreover, the inhibition entry with HT-29 [3] is “Dose-dependent effect”; in the experiment on HT-29 [4], “Dose-dependent effect”; with HT-29 [5], “Dose-dependent effect”; in the experiment with HT-29 [7], “tde”. In addition, the IC50 with HT-29 [3] (HT-29, 24 h) was found to be 5.45 µM. In addition, the inhibition result in the experiment with SW-620 was “Active”. In the experiment on HT-29 [6], the viability at 10 µM came out at 12%.
